The text below walks through data of US10774082B2, “Quinazoline compound” (Astellas Pharma Inc., priority 2017, dated 2020).

Experiment [1] has as its system ERK phosphorylation (Thr 202/Tyr 204) in NCI-H1373 cells. The experiment can be described thus: ERK phosphorylation inhibitory action in NCI-H1373 (Cell ELISA). The following applies: Homo sapiens, NCI-H1373, 2 h, read-out: IC50 (ERK phosphorylation inhibition). Format: cell-based, Human. On the procedure: Evaluation of ERK Phosphorylation Inhibitory Action with Respect to Human KRAS G12C Mutation Positive Non-Small Cell Lung Cancer Strain NCI-H1373
The ERK phosphorylation inhibitory action by the test compound was evaluated by measuring phosphorylation of 202th threonine (Thr 202) and 204th tyrosine (Tyr 204) of ERK on the downstream of the KRAS signal by Cell ELISA.
NCI-H1373 cells (ATCC, CRL-5866) were seeded in 384 well plates (Greiner bio-one) at 36 μL/well each so as to be 2×10^4 cell per well. Cell culture was performed under the conditions of temperature of 37° C. in the presence of 5% CO2 by using RPMI 1640 medium (Sigma-Aldrich Co. LLC) containing 10% fetal bovine serum (GE Life Sciences).
The next day, the test compounds (six points in a range of final concentration 1,000 nM to 0.3 nM), final concentration 1 μM of Trametinib (GlaxoSmithKline Inc.; MEK inhibitor) as a positive control, and DMSO which is a solvent of the test compound as a negative control were diluted 100-fold with fresh medium, 4 μL each was added to each well, and then cultured for 2 hours. Immediately after culturing, 30 μL of 30% glyoxal solution (Wako: 40% glyoxal diluted with Phosphate Buffered Saline (PBS; Wako)) was added to each well, and the cells were left to stand at room temperature for one hour to be fixed. Thereafter, the supernatant was removed by centrifuging the plate (110×g for 7 seconds, unless otherwise stated below under the same conditions), and 20 μL of PBS containing 0.1% Triton X-100 (Amersham Biosciences Corp.) was added to each well. After being left to stand at room temperature for 10 minutes, the supernatant was removed by centrifugation, and the same operation was repeated. Next, 20 μL of PBS containing 0.5% SDS (Invitrogen) was added to each well, and the mixture was left to stand at room temperature for 30 minutes, and then centrifuged to remove the supernatant. Subsequently, 20 μL of a blocking solution (ODYSSEY Blocking Buffer; LI-COR Biosciences) was added to each well, and left to stand at room temperature for one hour. The supernatant was removed by centrifugation, and 10 μL of a blocking solution prepared by diluting ERK (Thr 202/Tyr 204) of a phosphorylation antibody (Cell Signaling Technology, Inc.) as a primary antibody to be ½, 500 amount with respect to a stock solution was added to each well and was left to stand at 4° C. for overnight.
The next day, a reaction liquid is removed by centrifuging the plate, 20 μL of 0.05% Tween-20-containing PBS (Thermo Scientific; 20×PBS Tween-20 diluted 20-fold with ion exchanged water) was added to each well, and each well was washed by removing the supernatant by centrifugation. Washing was performed three times in total. After washing, 10 μL of a blocking solution prepared by diluting IRDye 800CW Goat anti-Rabbit IgG (LI-COR Biosciences) as a secondary antibody to be 1/1,000 amount with respect to a stock solution was added to each well and was left to stand at room temperature for one hour. The reaction liquid was removed by centrifuging the plate, and each well was washed three times with 0.05% Tween-20-containing PBS in the same manner as after primary antibody reaction. The centrifugation after the third wash was 171×g for 17 seconds. After removal of the cleaning solution, the plate was left to air dry at room temperature for three hours or more and the fluorescent signal at 800 nm was measured by Aerius (LI-COR Biosciences).
When a signal value at the time of adding DMSO was set as 0% inhibition, and a signal value at the time of adding 1 μM of Trametinib was set as 100% inhibition, a value of 50% inhibition (IC50) was calculated through Sigmoid-Emax model nonlinear regression analysis.
Background: An ELISA detects its analyte on a solid surface through an enzyme-linked reagent.

The test system of the next experiment is NCI-H1373 cells. The experiment can be described thus: Anchorage-independent cell proliferation inhibitory action, NCI-H1373 spheroid three-dimensional culture. Format: cell-based, Human. The following applies: Homo sapiens, NCI-H1373, 144 h, read-out: IC50 (anchorage-independent cell proliferation inhibition). The protocol:
Evaluation of Anchorage-Independent Cell Proliferation Inhibitory Action with Respect to Human KRAS G12C Mutation Positive Non-Small Cell Lung Cancer Strain NCI-H1373
An anchorage-independent cell proliferation inhibitory action by the test compound was evaluated by a spheroid three-dimensional culture.
NCI-H1373 cells were seeded in cell low adsorption U bottom 384 well plates (Prime Surface: Sumitomo Bakelite Co., Ltd.) at 36 μL/well each so as to be 5×10^2 cell per well. The cell culture was performed under the same conditions as Test example 2.
The next day, the test compounds (six points in a range of final concentration 1,000 nM to 0.3 nM) and DMSO which is a solvent of the test compound as a negative control were diluted 100-fold with fresh medium, 4 μL each was added to each well. After culturing at 37° C. in the presence of 5% CO2 for six days, 20 μL of CellTiter Glo or to CellTiter Glo 2.0 (Promega Corporation) was added to each well. After stirring for one hour at room temperature using a plate mixer (FINEPCR), an emission signal was measured with ARVO X3 (PerkinElmer Co., Ltd.).
When a signal value in a DMSO treatment was set as 0% inhibition, and a signal value in cell-free medium only was set as 100% inhibition, a value of 50% inhibition (IC50) was calculated through Sigmoid-Emax model nonlinear regression analysis.

The target in experiment [2] is T1, KRAS G12C/SOS/c-Raf complex (Homo sapiens, UniProt P01116, G12C).
T1 construct: Biotinylated AviTag-KRAS G12C (amino acid region 1-185, GDP)
The experiment can be described thus: KRAS G12C/SOS/c-Raf complex formation inhibitory action (TR-FRET). The experiment is classed as biochemical. To be noted: one hour at room temperature, read-out: IC50 (KRAS G12C/SOS/c-Raf complex formation inhibition). On the procedure: Evaluation of KRAS G12C/SOS/c-Raf Complex Formation Inhibitory Action
Human Recombinant KRAS G12C, SOS, and c-Raf protein were used, and with respect to the complex formation of these proteins, an inhibitory action of the test compound was examined through a time-resolved fluorescence resonance energy transfer (TR-FRET) method.
Biotinylated AviTag-KRAS G12C (amino acid region 1-185, GDP) (2.5 μL; 400 nM) dissolved in assay buffer (50 mM HEPES, 150 mM NaCl, 5 mM MgCl2, 0.05% Tween 20, pH 7.4) and test compound were added in a volume of 2.5 μL from 4,000 nM to 4 nM were added to 384 well plate (Corning Inc). Son of Sevenless (SOS) (amino acid region 564-1049, 2.5 μL; 1.3 μM) and c-Raf (amino acid region 51-131) GST containing GTP (Sigma-Aldrich Co. LLC) (2.5 μL; 130 nM and 4 μM of each) were added to the above mixture, and the resultant was left to stand for one hour at room temperature. Thereafter, a mixed solution (10 μL) of LANCE Ulight-anti-GST (120 nM, PerkinElmer. Co., Ltd) and LANCE Eu-W1024 labeled Streptoavidin (100 ng/mL, PerkinElmer. Co., Ltd) was added, and a fluorescence intensity on the condition of wavelength of 620 nm and 665 nm was measured by using EnVision 2103 Multilabel Reader (PerkinElmer Co., Ltd.) under the condition of excitation wavelength of 337 nm. […] In Tables, Ex represents Example numbers described later. In addition, in Tables, Compound C represents a test compound of Example I-59 disclosed in Pamphlet of International Publication No. WO 2016/164675, and the structures of Reference Example 1 and Reference Example 2 are indicated in Table 168 described below (the same shall apply hereinafter).
On the technique in general: In TR-FRET formats the signal depends on donor and acceptor labels being close together.

The mark [3] stands for this setting: NCI-H1373 cells, cultured for 2 hours, 100% = 1 μM Trametinib.
The mark [4] stands for this setting: NCI-H1373 spheroid, six days, CellTiter Glo.

Like-named read-outs stand apart in the source and are kept apart here.

T1 sequence (P01116 1-185 isoform P01116-2 G12C, one chain of several): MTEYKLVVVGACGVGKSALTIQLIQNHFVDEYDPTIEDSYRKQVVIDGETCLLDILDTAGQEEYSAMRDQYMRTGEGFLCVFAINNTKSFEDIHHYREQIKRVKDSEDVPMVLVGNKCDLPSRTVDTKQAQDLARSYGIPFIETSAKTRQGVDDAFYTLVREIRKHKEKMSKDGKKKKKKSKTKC

Turning to `C=CC(=O)N1CC2(CCN(c3nc(OC4CCN(CC)CC4)nc4c(OCC(F)F)c(-c5c(C)ccc6[nH]ncc56)c(C5CC5)cc34)CC2)C1` [Example 22], the IC50 is 4.6 nM in experiment [1] (setting [3]), 15 nM in the experiment with NCI-H1373 cells (setting [4]) and 39 nM in experiment [2].

Regarding `C=CC(=O)N1CC2(CCN(c3nc(OC[C@@H]4CCCN4C)nc4c(OCC)c(-c5c(C)ccc6[nH]ncc56)c(C5CC5)cc34)CC2)C1` [Example 23], the IC50 in experiment [1] (setting [3]) is 4.9 nM; in the experiment on NCI-H1373 cells (setting [4]), 5.9 nM; in experiment [2] it was 39 nM.

Regarding `C=CC(=O)N1CC2(CCN(c3nc(OC4CCN(CCCOC)CC4)nc4c(OCC(F)(F)F)c(-c5c(C)ccc6[nH]ncc56)c(C=C)cc34)CC2)C1` [Example 27], the IC50 in experiment [1] (setting [3]) came to 3.3 nM; in the experiment on NCI-H1373 cells (setting [4]), 6.5 nM; in experiment [2] it was 40 nM.

As for `C=CC(=O)N1CC2(CCN(c3nc(N4CCC(N(C)C)CC4)nc4c(OCC(F)(F)F)c(-c5c(C)ccc6[nH]ncc56)c(C=C)cc34)CC2)C1` [Example 42], the IC50 is 4.4 nM in experiment [1] (setting [3]), 13 nM in the experiment on NCI-H1373 cells (setting [4]) and 44 nM in experiment [2].

As for `C=CC(=O)N1CC2(CCN(c3nc(OC4CCN(C5CC5)CC4)nc4c(OCC)c(-c5c(C)ccc6[nH]ncc56)c(C5CC5)cc34)CC2)C1` [Example 43], the values for the IC50 (in experiment [1]; with NCI-H1373 cells; in experiment [2]) were 5 nM, 6 nM and 50 nM, respectively.

Take `C=CC(=O)N1CC2(CCN(c3nc(OC4CCN(CC5CCOCC5)CC4)nc4c(OCC(F)(F)F)c(-c5c(C)ccc6[nH]ncc56)c(C=C)cc34)CC2)C1` [Example 44]: the IC50 was 5.1 nM in experiment [1], 7.6 nM in the experiment on NCI-H1373 cells and 41 nM in experiment [2].

Turning to `C=CC(=O)N1CC2(CCN(c3nc(OC4CCN(CCN5CCOCC5)CC4)nc4c(OCC(F)(F)F)c(-c5c(C)ccc6[nH]ncc56)c(C5CC5)cc34)CC2)C1` [Example 45], the IC50 in experiment [1] is 5.2 nM; with NCI-H1373 cells it was 7.3 nM; in experiment [2], 38 nM.

With `C=CC(=O)N1CC2(CCN(c3nc(OC4CCN(CC5CC5)CC4)nc4c(OCC(F)(F)F)c(-c5c(C)ccc6[nH]ncc56)c(C=C)cc34)CC2)C1` [Example 46], the IC50 in experiment [1] (setting [3]) stood at 5.5 nM; with NCI-H1373 cells (setting [4]), 8.1 nM; in experiment [2], 48 nM.

As to `C=CC(=O)N1CC2(CCN(c3nc(OC4CCN(CCOC(C)C)CC4)nc4c(OCC(F)(F)F)c(-c5c(C)ccc6[nH]ncc56)c(C=C)cc34)CC2)C1` [Example 47], the values for the IC50 (in experiment [1] (setting [3]); with NCI-H1373 cells (setting [4]); in experiment [2]) were 5.6 nM, 17 nM and 43 nM, respectively.

Take `C=CC(=O)N1CC2(CCN(c3nc(OC4CCN(C)CC4C)nc4c(OCC(F)(F)F)c(-c5c(C)ccc6[nH]ncc56)c(C=C)cc34)CC2)C1` (stereo not drawn) [Example 48]: the IC50 in experiment [1] (setting [3]) came to 5.9 nM; with NCI-H1373 cells (setting [4]), 15 nM; in experiment [2], 54 nM.

Regarding `C=CC(=O)N1CC2(CCN(c3nc(OC4CCN(CCOC)CC4)nc4c(OCC(F)(F)F)c(-c5c(C=C)ccc6[nH]ncc56)c(C=C)cc34)CC2)C1` [Example 49], the IC50 in experiment [1] (setting [3]) stood at 2.9 nM; in the experiment with NCI-H1373 cells (setting [4]), 4.6 nM; in experiment [2], 41 nM.

Regarding `C=CC(=O)N1CC2(CCN(c3nc(OC4CCN(CCOC)CC4)nc4c(OC(F)F)c(-c5c(C)ccc6[nH]ncc56)c(C=C)cc34)CC2)C1` [Example 53], the IC50 amounted to 6.8 nM in experiment [1] (setting [3]), 9.8 nM with NCI-H1373 cells (setting [4]) and 37 nM in experiment [2].

Regarding `C=CC(=O)N1CC2(CCN(c3nc(OC4CCN(CCC#N)CC4)nc4c(OCC)c(-c5c(C)ccc6[nH]ncc56)c(C5CC5)cc34)CC2)C1` [Example 54], the results for the IC50 (in experiment [1] (setting [3]); in the experiment with NCI-H1373 cells (setting [4]); in experiment [2]) were 7.2 nM, 6.8 nM and 60 nM, respectively.

Consider `C=CC(=O)N1CC2(CCN(c3nc(OC4CCN(C(CF)CF)CC4)nc4c(OCC(F)(F)F)c(-c5c(C)ccc6[nH]ncc56)c(C=C)cc34)CC2)C1` [Example 55], for which the IC50 in experiment [1] (setting [3]) worked out at 7.4 nM; in the experiment on NCI-H1373 cells (setting [4]), 43 nM; in experiment [2], 83 nM.

Take `C=CC(=O)N1CC2(CCN(c3nc(OC4CCN(C)CC4)nc4c(OCc5cccc(OC)c5)c(-c5c(C)ccc6[nH]ncc56)c(C=C)cc34)CC2)C1` [Example 57]: the IC50 in experiment [1] (setting [3]) amounted to 8.2 nM; in the experiment with NCI-H1373 cells (setting [4]), 39 nM; in experiment [2], 52 nM.

Take `C=CC(=O)N1CC2(CCN(c3nc(OC4CCN(C)CC4)nc4c(OCc5ccc(C)cc5)c(-c5c(C)ccc6[nH]ncc56)c(C=C)cc34)CC2)C1` [Example 58]: the IC50 was determined as 8.4 nM in experiment [1] (setting [3]), 17 nM with NCI-H1373 cells (setting [4]) and 57 nM in experiment [2].

As to `C=CC(=O)N1CC2(CCN(c3nc(N4CCN(CCOC)CC4)nc4c(OCC(F)(F)F)c(-c5c(C)ccc6[nH]ncc56)c(C=C)cc34)CC2)C1` [Example 59], the IC50 turned out to be 8.4 nM in experiment [1] (setting [3]), 26 nM in the experiment on NCI-H1373 cells (setting [4]) and 63 nM in experiment [2].
